Results reported in the NIST ThermoML archive (doi:10.1021/je050413l).
“And” between values parts separate entries of the source, which are not always exact repeats. Identical values can stand only once. Numbers after ± are expanded uncertainties.

What was measured:
[1] = 303.15 K, Liquid; for speed of sound / viscosity: 101 kPa; for mass density: 101.33 kPa, Pycnometric method
[2] = φn = volume fraction of the nth substance listed; conditions: 303.15 K, 101 kPa, Liquid
[3] = xn = mol fraction of the nth substance listed; conditions: 303.15 K, 101 kPa, Liquid, Direct dilatometry

Cc1ccccc1Cl [2-chlorotoluene]
[1]
Conditions	mass density [kg/m3]	speed of sound [m/s]	viscosity [mPa·s]
–	1072.77 ± 2.8	1284 ± 7	0.887 ± 0.031

Cc1ccccc1Cl [2-chlorotoluene] + CC(=O)c1ccccc1
[2], φ2 = 0
Conditions	speed of sound [m/s]	viscosity [mPa·s]
–	1284 ± 7	0.887 ± 0.031

Cc1ccccc1[N+](=O)[O-] [2-nitrotoluene]
[1]
Conditions	mass density [kg/m3]	viscosity [mPa·s]
–	1153.26 ± 3	1.911 ± 0.065

Cc1ccccc1[N+](=O)[O-] [2-nitrotoluene] + CC(=O)c1ccccc1
Conditions	excess molar volume [m3/mol]	speed of sound [m/s]	viscosity [mPa·s]
[2], φ2 = 0	–	–	1.911 ± 0.065
[2], φ2 = 0.0805	–	2017 ± 11	1.91 ± 0.065
[2], φ2 = 0.1011	–	1997 ± 11	1.903 ± 0.065
[2], φ2 = 0.2132	–	1889 ± 10	1.857 ± 0.063
[2], φ2 = 0.3245	–	1803 ± 10	1.817 ± 0.062
[2], φ2 = 0.4197	–	1737 ± 10	1.781 ± 0.061
[2], φ2 = 0.5086	–	1681 ± 10	1.747 ± 0.06
[2], φ2 = 0.6196	–	1622 ± 10	1.701 ± 0.058
[2], φ2 = 0.7297	–	1568 ± 9	1.652 ± 0.057
[2], φ2 = 0.7911	–	1541 ± 9	1.624 ± 0.056
[2], φ2 = 0.8704	–	1508 ± 9	1.582 ± 0.054
[3], x2 = 0.0812	1.1e-08 ± 6e-09	–	–
[3], x2 = 0.1019	1.5e-08 ± 6e-09	–	–
[3], x2 = 0.2147	2.4e-08 ± 6e-09	–	–
[3], x2 = 0.3265	3.3e-08 ± 6e-09	–	–
[3], x2 = 0.4219	3.9e-08 ± 6e-09	–	–
[3], x2 = 0.5109	4.2e-08 ± 6e-09	–	–
[3], x2 = 0.6217	3.7e-08 ± 6e-09	–	–
[3], x2 = 0.7315	2.6e-08 ± 6e-09	–	–
[3], x2 = 0.7926	2e-08 ± 6e-09	–	–
[3], x2 = 0.8714	1.1e-08 ± 6e-09	–	–

Cc1cccc(Cl)c1 [3-chlorotoluene]
[1]
Conditions	mass density [kg/m3]	speed of sound [m/s]	viscosity [mPa·s]
–	1065.22 ± 2.8	1280 ± 7	0.782 ± 0.028

Cc1cccc(Cl)c1 [3-chlorotoluene] + CC(=O)c1ccccc1
Conditions	excess molar volume, [3] [m3/mol]	speed of sound, [2] [m/s]	viscosity, [2] [mPa·s]
x2 = 0.0524	1e-08 ± 6e-09	–	–
x2 = 0.103	1.5e-08 ± 6e-09	–	–
x2 = 0.2141	2.3e-08 ± 6e-09	–	–
x2 = 0.3119	2.9e-08 ± 6e-09	–	–
x2 = 0.4266	3.3e-08 ± 6e-09	–	–
x2 = 0.5009	3.4e-08 ± 6e-09	–	–
x2 = 0.6174	3.2e-08 ± 6e-09	–	–
x2 = 0.705	2.8e-08 ± 6e-09	–	–
x2 = 0.8519	1.5e-08 ± 6e-09	–	–
x2 = 0.952	6e-09 ± 6e-09	–	–
φ2 = 0	–	1280 ± 7	0.782 ± 0.028
φ2 = 0.052	–	1297 ± 7	0.891 ± 0.032
φ2 = 0.1022	–	1315 ± 7	0.901 ± 0.032
φ2 = 0.2127	–	1346 ± 8	1.002 ± 0.035
φ2 = 0.3101	–	1370 ± 8	1.073 ± 0.038
φ2 = 0.4246	–	1395 ± 8	1.16 ± 0.04
φ2 = 0.4988	–	1412 ± 8	1.222 ± 0.042
φ2 = 0.6154	–	1431 ± 8	1.31 ± 0.045
φ2 = 0.7033	–	1438 ± 8	1.37 ± 0.047
φ2 = 0.8508	–	1449 ± 8	1.458 ± 0.05
φ2 = 0.9516	–	1455 ± 8	1.503 ± 0.052

Cc1cccc([N+](=O)[O-])c1 [3-nitrotoluene]
[1]
Conditions	mass density [kg/m3]	viscosity [mPa·s]
–	1147.62 ± 3	1.775 ± 0.061

Cc1cccc([N+](=O)[O-])c1 [3-nitrotoluene] + CC(=O)c1ccccc1
Conditions	excess molar volume [m3/mol]	speed of sound [m/s]	viscosity [mPa·s]
[2], φ2 = 0	–	–	1.775 ± 0.061
[2], φ2 = 0.0972	–	1987 ± 11	1.748 ± 0.06
[2], φ2 = 0.116	–	1972 ± 11	1.745 ± 0.06
[2], φ2 = 0.2051	–	1892 ± 10	1.731 ± 0.059
[2], φ2 = 0.3085	–	1808 ± 10	1.713 ± 0.059
[2], φ2 = 0.4191	–	1737 ± 10	1.694 ± 0.058
[2], φ2 = 0.5383	–	1666 ± 10	1.666 ± 0.057
[2], φ2 = 0.6446	–	1608 ± 9	1.64 ± 0.056
[2], φ2 = 0.7076	–	1580 ± 9	1.623 ± 0.056
[2], φ2 = 0.7994	–	1539 ± 9	1.594 ± 0.055
[2], φ2 = 0.886	–	1503 ± 9	1.564 ± 0.054
[3], x2 = 0.0984	1.8e-08 ± 6e-09	–	–
[3], x2 = 0.1174	2.1e-08 ± 6e-09	–	–
[3], x2 = 0.2074	3e-08 ± 6e-09	–	–
[3], x2 = 0.3115	3.9e-08 ± 6e-09	–	–
[3], x2 = 0.4225	4.7e-08 ± 6e-09	–	–
[3], x2 = 0.5417	5e-08 ± 6e-09	–	–
[3], x2 = 0.6478	4.3e-08 ± 6e-09	–	–
[3], x2 = 0.7105	3.5e-08 ± 6e-09	–	–
[3], x2 = 0.8016	2.5e-08 ± 6e-09	–	–
[3], x2 = 0.8874	1.4e-08 ± 6e-09	–	–

Cc1ccc(Cl)cc1 [4-chlorotoluene]
[1]
Conditions	mass density [kg/m3]	speed of sound [m/s]	viscosity [mPa·s]
–	1060.54 ± 2.8	1271 ± 12	0.9 ± 0.032

Cc1ccc(Cl)cc1 [4-chlorotoluene] + CC(=O)c1ccccc1
Conditions	excess molar volume, [3] [m3/mol]	speed of sound, [2] [m/s]	viscosity, [2] [mPa·s]
x2 = 0.087	1.6e-08 ± 6e-09	–	–
x2 = 0.1206	2e-08 ± 6e-09	–	–
x2 = 0.2175	2.7e-08 ± 6e-09	–	–
x2 = 0.3009	3.4e-08 ± 6e-09	–	–
x2 = 0.4017	4.1e-08 ± 6e-09	–	–
x2 = 0.5224	4.4e-08 ± 6e-09	–	–
x2 = 0.6211	3.9e-08 ± 6e-09	–	–
x2 = 0.7025	3.2e-08 ± 6e-09	–	–
x2 = 0.8214	2.1e-08 ± 6e-09	–	–
x2 = 0.8774	1.6e-08 ± 6e-09	–	–
φ2 = 0	–	1271 ± 12	0.9 ± 0.032
φ2 = 0.0807	–	1304 ± 12	0.903 ± 0.032
φ2 = 0.1193	–	1314 ± 12	1.011 ± 0.035
φ2 = 0.2153	–	1343 ± 12	1.058 ± 0.037
φ2 = 0.2982	–	1371 ± 12	1.118 ± 0.039
φ2 = 0.3986	–	1406 ± 12	1.198 ± 0.042
φ2 = 0.5192	–	1419 ± 12	1.286 ± 0.045
φ2 = 0.6181	–	1430 ± 12	1.352 ± 0.047
φ2 = 0.6998	–	1440 ± 12	1.4 ± 0.048
φ2 = 0.8195	–	1448 ± 13	1.469 ± 0.051
φ2 = 0.876	–	1453 ± 13	1.496 ± 0.051

CC(=O)c1ccccc1 [acetophenone]
[1]
Conditions	mass density [kg/m3]	speed of sound	viscosity [mPa·s]
–	1019.43 ± 2.7	1460 ± 8 m/s and 1466 ± 8 m/s	1.511 ± 0.052

CC(=O)c1ccccc1 [acetophenone] + Cc1ccc(Cl)cc1
[2], φ1 = 1
Conditions	speed of sound [m/s]	viscosity [mPa·s]
–	1460 ± 13	1.511 ± 0.052

CC(=O)c1ccccc1 [acetophenone] + Cc1cccc(Cl)c1
[2], φ1 = 1
Conditions	speed of sound [m/s]	viscosity [mPa·s]
–	1460 ± 8	1.511 ± 0.052

CC(=O)c1ccccc1 [acetophenone] + Cc1cccc([N+](=O)[O-])c1
[2], φ1 = 1
Conditions	speed of sound [m/s]	viscosity [mPa·s]
–	1466 ± 9	1.511 ± 0.052

CC(=O)c1ccccc1 [acetophenone] + Cc1ccccc1Cl
Conditions	excess molar volume, [3] [m3/mol]	speed of sound, [2] [m/s]	viscosity, [2] [mPa·s]
x1 = 0.0901	6e-09 ± 6e-09	–	–
x1 = 0.151	9e-09 ± 6e-09	–	–
x1 = 0.2271	1.3e-08 ± 6e-09	–	–
x1 = 0.3205	1.6e-08 ± 6e-09	–	–
x1 = 0.4021	1.8e-08 ± 6e-09	–	–
x1 = 0.5219	2e-08 ± 6e-09	–	–
x1 = 0.6224	2e-08 ± 6e-09	–	–
x1 = 0.702	1.8e-08 ± 6e-09	–	–
x1 = 0.8194	1.5e-08 ± 6e-09	–	–
x1 = 0.9005	9e-09 ± 6e-09	–	–
φ1 = 0.09	–	1310 ± 7	0.901 ± 0.032
φ1 = 0.1508	–	1326 ± 7	0.949 ± 0.033
φ1 = 0.2269	–	1345 ± 8	0.999 ± 0.035
φ1 = 0.3202	–	1368 ± 8	1.066 ± 0.037
φ1 = 0.4018	–	1387 ± 8	1.123 ± 0.039
φ1 = 0.5216	–	1409 ± 8	1.225 ± 0.043
φ1 = 0.6221	–	1423 ± 8	1.305 ± 0.045
φ1 = 0.7017	–	1432 ± 8	1.41 ± 0.049
φ1 = 0.8192	–	1448 ± 8	1.465 ± 0.05
φ1 = 0.9004	–	1451 ± 8	1.502 ± 0.052
φ1 = 1	–	1460 ± 8	1.511 ± 0.052

CC(=O)c1ccccc1 [acetophenone] + Cc1ccccc1[N+](=O)[O-]
[2], φ1 = 1
Conditions	speed of sound [m/s]	viscosity [mPa·s]
–	1460 ± 9	1.511 ± 0.052
